Test results taken from PubChem BioAssay (NCI).
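GI50 = concentration required for 50% inhibition of growth. TGI marks complete inhibition of growth.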

What was measured:
Test in all cases: growth of human tumour cells (NCI), 384-well format
NCI-H322M lung = tested on: NCI-H322M lung
NCI-H460 NSCLC = tested on: NCI-H460 NSCLC
MALME-3M melanoma = tested on: MALME-3M melanoma
A549 NSCLC = tested on: A549 NSCLC
SF-539 CNS = tested on: SF-539 CNS
DU-145 prostate = tested on: DU-145 prostate
SK-MEL-2 melanoma = tested on: SK-MEL-2 melanoma
EKVX NSCLC = tested on: EKVX NSCLC
U251 glioblastoma = tested on: U251 glioblastoma
COLO 205 colon = tested on: COLO 205 colon
SF-295 CNS = tested on: SF-295 CNS
NCI-H23 lung = tested on: NCI-H23 lung
SK-OV-3 ovarian = tested on: SK-OV-3 ovarian
HCC-2998 colon = tested on: HCC-2998 colon
A498 renal = tested on: A498 renal
RPMI-8226 leukemia = tested on: RPMI-8226 leukemia
SNB-19 CNS = tested on: SNB-19 CNS
OVCAR-8 ovarian = tested on: OVCAR-8 ovarian
MDA-MB-231 breast = tested on: MDA-MB-231 breast
UACC-62 melanoma = tested on: UACC-62 melanoma
SK-MEL-5 melanoma = tested on: SK-MEL-5 melanoma
NCI-H522 lung = tested on: NCI-H522 lung
KM12 colon = tested on: KM12 colon
SR leukemia = tested on: SR leukemia
MDA-MB-435 melanoma = tested on: MDA-MB-435 melanoma
MCF7 breast = tested on: MCF7 breast
T-47D breast = tested on: T-47D breast
UO-31 renal = tested on: UO-31 renal
UACC-257 melanoma = tested on: UACC-257 melanoma
SNB-75 CNS = tested on: SNB-75 CNS

Question: For `Cc1cc2cc(Oc3ccnc(Nc4cccc(CS(=O)(=O)NCCN(C)C)c4)n3)ccc2[nH]1`, which GI50 (NCI-H322M lung) is on record?
Answer: The GI50 was 10.7 µM.

Question: What about the TGI (NCI-H322M lung) of the same molecule?
Answer: The TGI was 23.2 µM.

Question: What about the GI50 (NCI-H460 NSCLC) of the same molecule?
Answer: Its GI50 is 2620 nM.

Question: What about the TGI (NCI-H460 NSCLC) of the same molecule?
Answer: Its TGI is 6.54 µM.

Question: And the GI50 (MALME-3M melanoma)?
Answer: The GI50 was 1840 nM.

Question: What about the TGI (MALME-3M melanoma) of the same molecule?
Answer: The TGI was 3.34 µM.

Question: What about the GI50 (A549 NSCLC) of the same molecule?
Answer: The GI50 was 7.13 µM.

Question: And the TGI (A549 NSCLC)?
Answer: Its TGI is 19.4 µM.

Question: And the GI50 (SF-539 CNS)?
Answer: Its GI50 is 2040 nM.

Question: What about the TGI (SF-539 CNS) of the same molecule?
Answer: Its TGI is 6.29 µM.

Question: And the GI50 (DU-145 prostate)?
Answer: Its GI50 is 8.4 µM.

Question: What about the TGI (DU-145 prostate) of the same molecule?
Answer: Its TGI is 20.8 µM.

Question: And the GI50 (SK-MEL-2 melanoma)?
Answer: Its GI50 is 2640 nM.

Question: What about the TGI (SK-MEL-2 melanoma) of the same molecule?
Answer: The TGI was 6.28 µM.

Question: And the GI50 (EKVX NSCLC)?
Answer: Its GI50 is 5.04 µM.

Question: And the TGI (EKVX NSCLC)?
Answer: Its TGI is 16.7 µM.

Question: And the GI50 (U251 glioblastoma)?
Answer: The GI50 was 3.56 µM.

Question: And the TGI (U251 glioblastoma)?
Answer: Its TGI is 14.5 µM.

Question: And the GI50 (COLO 205 colon)?
Answer: Its GI50 is 4.4 µM.

Question: What about the TGI (COLO 205 colon) of the same molecule?
Answer: Its TGI is 10.2 µM.

Question: What about the GI50 (SF-295 CNS) of the same molecule?
Answer: The GI50 was 8.49 µM.

Question: And the TGI (SF-295 CNS)?
Answer: Its TGI is 21.1 µM.

Question: What about the GI50 (NCI-H23 lung) of the same molecule?
Answer: The GI50 was 2510 nM.

Question: What about the TGI (NCI-H23 lung) of the same molecule?
Answer: The TGI was 8.7 µM.

Question: What about the GI50 (SK-OV-3 ovarian) of the same molecule?
Answer: Its GI50 is 8.13 µM.

Question: What about the TGI (SK-OV-3 ovarian) of the same molecule?
Answer: Its TGI is 20.8 µM.

Question: And the GI50 (HCC-2998 colon)?
Answer: Its GI50 is 2020 nM.

Question: What about the TGI (HCC-2998 colon) of the same molecule?
Answer: Its TGI is 3.98 µM.

Question: What about the GI50 (A498 renal) of the same molecule?
Answer: Its GI50 is 3.08 µM.

Question: And the TGI (A498 renal)?
Answer: Its TGI is 11.1 µM.

Question: What about the GI50 (RPMI-8226 leukemia) of the same molecule?
Answer: The GI50 was 3.29 µM.

Question: What about the TGI (RPMI-8226 leukemia) of the same molecule?
Answer: Its TGI is 11.4 µM.

Question: And the GI50 (SNB-19 CNS)?
Answer: The GI50 was 8.83 µM.

Question: And the TGI (SNB-19 CNS)?
Answer: The TGI was 21.2 µM.

Question: And the GI50 (OVCAR-8 ovarian)?
Answer: The GI50 was 9.99 µM.

Question: And the TGI (OVCAR-8 ovarian)?
Answer: The TGI was 22.1 µM.

Question: And the GI50 (MDA-MB-231 breast)?
Answer: The GI50 was 6.73 µM.

Question: What about the TGI (MDA-MB-231 breast) of the same molecule?
Answer: The TGI was 19.1 µM.

Question: And the GI50 (UACC-62 melanoma)?
Answer: The GI50 was 2780 nM.

Question: What about the TGI (UACC-62 melanoma) of the same molecule?
Answer: The TGI was 7.45 µM.

Question: What about the GI50 (SK-MEL-5 melanoma) of the same molecule?
Answer: The GI50 was 1740 nM.

Question: What about the TGI (SK-MEL-5 melanoma) of the same molecule?
Answer: Its TGI is 3.16 µM.

Question: And the GI50 (NCI-H522 lung)?
Answer: Its GI50 is 2470 nM.

Question: What about the TGI (NCI-H522 lung) of the same molecule?
Answer: The TGI was 7.78 µM.

Question: And the GI50 (KM12 colon)?
Answer: The GI50 was 736 nM.

Question: And the TGI (KM12 colon)?
Answer: Its TGI is 12.2 µM.

Question: What about the GI50 (SR leukemia) of the same molecule?
Answer: The GI50 was 1380 nM.

Question: And the TGI (SR leukemia)?
Answer: Its TGI is 2690 nM.

Question: What about the GI50 (MDA-MB-435 melanoma) of the same molecule?
Answer: Its GI50 is 7.5 µM.

Question: What about the TGI (MDA-MB-435 melanoma) of the same molecule?
Answer: Its TGI is 19.6 µM.

Question: And the GI50 (MCF7 breast)?
Answer: Its GI50 is 3.48 µM.

Question: And the TGI (MCF7 breast)?
Answer: Its TGI is 12.7 µM.

Question: And the GI50 (T-47D breast)?
Answer: The GI50 was 7.08 µM.

Question: What about the TGI (T-47D breast) of the same molecule?
Answer: Its TGI is 19.2 µM.

Question: And the GI50 (UO-31 renal)?
Answer: The GI50 was 10.6 µM.

Question: What about the TGI (UO-31 renal) of the same molecule?
Answer: Its TGI is 22.5 µM.

Question: And the GI50 (UACC-257 melanoma)?
Answer: The GI50 was 1840 nM.

Question: And the TGI (UACC-257 melanoma)?
Answer: Its TGI is 3.26 µM.

Question: What about the GI50 (SNB-75 CNS) of the same molecule?
Answer: Its GI50 is 1550 nM.

Question: And the TGI (SNB-75 CNS)?
Answer: The TGI was 3.81 µM.
